Source: patent US9718808B2, “Inhibitors of the renal outer medullary potassium channel” (Merck Sharp & Dohme Corp., priority 2014, dated 2017)

biological target: ROMK (Kir1.1) channel (Homo sapiens (Human), UniProt P48048); assay: Thallium Flux Assay; format: cell-based
Experimental: A Thallium Flux Assay was performed on each of the final product compounds of the Examples. This assay has been described previously; see, e.g., PCT Published Application WO 2013/062900.

Chain of ROMK (Kir1.1) channel (P48048 whole entry): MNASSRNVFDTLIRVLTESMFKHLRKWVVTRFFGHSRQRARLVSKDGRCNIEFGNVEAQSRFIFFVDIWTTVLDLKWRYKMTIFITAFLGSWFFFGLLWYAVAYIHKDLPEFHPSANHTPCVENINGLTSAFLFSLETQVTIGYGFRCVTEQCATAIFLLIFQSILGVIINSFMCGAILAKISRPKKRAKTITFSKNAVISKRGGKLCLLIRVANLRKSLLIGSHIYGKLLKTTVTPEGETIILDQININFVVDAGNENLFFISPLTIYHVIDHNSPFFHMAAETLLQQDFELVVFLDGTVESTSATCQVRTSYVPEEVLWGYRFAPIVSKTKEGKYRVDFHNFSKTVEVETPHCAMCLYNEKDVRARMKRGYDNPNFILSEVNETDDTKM

Row | Compound | IC50 [nM]
1 | CC1C[C@]2(CC[C@@H](NCc3cnc(-n4cnnn4)cn3)CC2)C(=O)N1C1=CC(=O)OC1 (stereo partly drawn) [Example 50, (5r,8r)-3-methyl-2-(5-oxo-2,5-dihydrofuran-3-yl)-8-({[5-(1H-tetrazol-1-yl)pyrazin-2-yl]methyl}amino)-2-azaspiro[4.5]decan-1-one] | 39
2 | (5s,8s)-2-(4-methyl-5-oxo-2,5-dihydrofuran-3-yl)-8-({[5-(1H-tetrazol-1-yl)pyrazin-2-yl]methyl}amino)-2-azaspiro[4.5]decan-1-one [Example 13] | 32
3 | CC1=C(N2CC[C@]3(CC[C@@H](N[C@@H](C)c4ccc(-n5cnnn5)cn4)CC3)C2=O)COC1=O [Example 29, (5S,8r)-2-(4-methyl-5-oxo-2,5-dihydrofuran-3-yl)-8-({(1S)-1-[5-(1H-tetrazol-1-yl)pyridin-2-yl]ethyl}amino)-2-azaspiro[4.5]decan-1-one] | 20
4 | CC1=C(N2CC[C@]3(CC[C@@H](NCc4cnc5c(c4)Cn4nnnc4-5)CC3)C2=O)COC1=O [Example 52, (5r,8r)-8-(((8H-tetrazolo[1′,5′:1,2]pyrrolo[3,4-b]pyridin-6-yl)methyl)amino)-2-(4-methyl-5-oxo-2,5-dihydrofuran-3-yl)-2-azaspiro[4.5]decan-1-one] | 160
5 | CC1=C(N2CC[C@]3(CC[C@@H](NCc4ccc5c(c4)Cn4nnnc4-5)CC3)C2=O)COC1=O [Example 11, (5r,8r)-2-(4-methyl-5-oxo-2,5-dihydrofuran-3-yl)-8-[(5H-tetrazolo[5,1-a]isoindol-7-ylmethyl)amino]-2-azaspiro[4.5]decan-1-one] | 110
6 | CC1=C(N2CC[C@]3(CC[C@@](C)(N(C)Cc4cnc(-n5cnnn5)cn4)CC3)C2=O)COC1=O [Example 129] | 45
7 | CC1=C(N2CC[C@]3(CC[C@](C)(NCc4ccc(-n5cnnn5)nn4)CC3)C2=O)COC1=O [Example 42, (5s,8s)-8-methyl-2-(4-methyl-5-oxo-2,5-dihydrofuran-3-yl)-8-({[6-(1H-tetrazol-1-yl)pyridazin-3-yl]methyl}amino)-2-azaspiro[4.5]decan-1-one] | 70
8 | CC1=C(N2CC[C@]3(CC[C@@H](NCc4nnc(-n5cnnn5)cc4C)CC3)C2=O)COC1=O [Example 12, (5r,8r)-2-(4-methyl-5-oxo-2,5-dihydrofuran-3-yl)-8-({[4-methyl-6-(1H-tetrazol-1-yl)pyridazin-3-yl]methyl}amino)-2-azaspiro[4.5]decan-1-one] | 8.3
9 | CC1=C(N2CC[C@]3(CC[C@H](NCCc4ccc5c(c4)COC5=O)CC3)C2=O)COC1=O [Example 3, (5s,8s)-2-(4-methyl-5-oxo-2,5-dihydrofuran-3-yl)-8-{[2-(1-oxo-1,3-dihydro-2-benzofuran-5-yl)ethyl]amino}-2-azaspiro[4.5]decan-1-one] | 200
10 | CC1C[C@]2(CC[C@@H](NCc3cnc(-n4cnnn4)cn3)CC2)C(=O)N1C1=CC(=O)OC1 (stereo partly drawn) [Example 49, (5r,8r)-3-methyl-2-(5-oxo-2,5-dihydrofuran-3-yl)-8-({[5-(1H-tetrazol-1-yl)pyrazin-2-yl]methyl}amino)-2-azaspiro[4.5]decan-1-one] | 240
11 | CC1=C(N2CC[C@]3(CC[C@H](NCc4ccc(-n5cnnn5)cc4)CC3)C2=O)COC1=O [Example 43, (5s,8s)-2-(4-methyl-5-oxo-2,5-dihydrofuran-3-yl)-8-{[4-(1H-tetrazol-1-yl)benzyl]amino}-2-azaspiro[4.5]decan-1-one] | 49
12 | CC1=C(N2C(=O)[C@]3(CC[C@H](NCc4ccc5c(c4)Cn4nnnc4-5)CC3)C[C@@H]2C)COC1=O [Example 56, (3S,5r,8S)-8-(((5H-tetrazolo[5,1-a]isoindol-7-yl)methyl)amino)-3-methyl-2-(4-methyl-5-oxo-2,5-dihydrofuran-3-yl)-2-azaspiro[4.5]decan-1-one] | 520
13 | CC1=C(N2CC[C@]3(CC[C@@H](NCc4ccc5c(c4)C(C)n4nnnc4-5)CC3)C2=O)COC1=O (stereo partly drawn) [Example 53, (5r,8r)-2-(4-methyl-5-oxo-2,5-dihydrofuran-3-yl)-8-(((5-methyl-5H-tetrazolo[5,1-a]isoindol-7-yl)methyl)amino)-2-azaspiro[4.5]decan-1-one] | 19
14 | CC1=C(N2CC[C@]3(CC[C@@H](N[C@@H](C)c4ccc(-n5cnnn5)nc4)CC3)C2=O)COC1=O [Example 9, (5S,8r)-2-(4-methyl-5-oxo-2,5-dihydrofuran-3-yl)-8-({(1S)-1-[6-(1H-tetrazol-1-yl)pyridin-3-yl]ethyl}amino)-2-azaspiro[4.5]decan-1-one] | 34

Continued, values first:

Row | IC50 [nM] | Compound
15 | 210 | CC1=C(N2CC[C@]3(CC[C@H](NCc4ccc(-n5ncnn5)nn4)CC3)C2=O)COC1=O [Example 74, (5s,8s)-8-(((6-(2H-tetrazol-2-yl)pyridazin-3-yl)methyl)amino)-2-(4-methyl-5-oxo-2,5-dihydrofuran-3-yl)-2-azaspiro[4.5]decan-1-one]
16 | 32 | CC1=C(N2CC[C@]3(CC[C@@H](N(C)Cc4ccc5c(c4)CCc4nnnn4-5)CC3)C2=O)COC1=O [Example 112]
17 | 300 | CC1=C(N2CC[C@]3(CC[C@@H](N(C)[C@@H](CO)c4ccc(-n5cnnn5)nc4)CC3)C2=O)COC1=O [Example 102]
18 | 26 | CC1=C(N2CC[C@]3(CC[C@@H](N(C)Cc4cc5c(cc4C)-c4nnnn4C5)CC3)C2=O)COC1=O [Example 122]
19 | 290 | CC1=C(N2CC[C@]3(CC[C@H](N(C)[C@@H](CO)c4ccc(-n5cnnn5)nc4)CC3)C2=O)COC1=O [Example 101]
20 | 9.3 | CC1=C(N2CC[C@]3(CC[C@@H](NCc4ccc(-n5ncnn5)nn4)CC3)C2=O)COC1=O [Example 75, (5r,8r)-8-(((6-(2H-tetrazol-2-yl)pyridazin-3-yl)methyl)amino)-2-(4-methyl-5-oxo-2,5-dihydrofuran-3-yl)-2-azaspiro[4.5]decan-1-one]
21 | 19 | CC1=C(N2CC[C@]3(CC[C@@H](N(C)Cc4ccc(-n5cnnn5)nn4)CC3)C2=O)COC1=O [Example 80, (5r,8r)-2-(4-methyl-5-oxo-2,5-dihydrofuran-3-yl)-8-(methyl{[6-(1H-tetrazol-1-yl)pyridazin-3-yl]methyl}amino)-2-azaspiro[4.5]decan-1-one]
22 | 2000 | O=C1C=C(N2CC[C@]3(CC[C@H](NCc4cnc(-n5cnnn5)cn4)CC3)C2=O)CO1 [Example 73, (5s,8s)-8-(((5-(1H-tetrazol-1-yl)pyrazin-2-yl)methyl)amino)-2-(5-oxo-2,5-dihydrofuran-3-yl)-2-azaspiro[4.5]decan-1-one]
23 | 7 | C[C@H]1C[C@]2(CC[C@@H](NCc3cnc(-n4cnnn4)cn3)CC2)C(=O)N1C1=CC(=O)OC1 [Example 66, (3S,5r,8S)-8-(((5-(1H-tetrazol-1-yl)pyrazin-2-yl)methyl)amino)-3-methyl-2-(5-oxo-2,5-dihydrofuran-3-yl)-2-azaspiro[4.5]decan-1-one]
24 | 23 | CC1=C(N2CC[C@]3(CC[C@@H](N(C)Cc4ccc5c(c4F)Cn4nnnc4-5)CC3)C2=O)COC1=O [Example 121]
25 | 36 | CCN(Cc1ccc2c(c1)Cn1nnnc1-2)[C@H]1CC[C@@]2(CCN(C3=C(C)C(=O)OC3)C2=O)CC1 [Example 133]
26 | 22 | CC1=C(N2CC[C@]3(CC[C@@H](N(C)Cc4ncc(-n5cnnn5)nc4C)CC3)C2=O)COC1=O [Example 125]
27 | 430 | CC1=C(N2CC[C@]3(CC[C@H](N(C)Cc4ccc(-n5ncnn5)nn4)CC3)C2=O)COC1=O [Example 114]
